Test results as given in patent US20130072474A1, “TREATMENT OF DEMENTIA OF ALZHEIMER'S TYPE WITH MASITINIB” (AB SCIENCE, priority 2010, published 2013).

Tested on: patients suffering from mild to moderate dementia of Alzheimer's type
Experiment: Phase 2 study, ADAS-Cog (cognitive function)
Assay type: in vivo, human
Design: key to ADAS-Cog absolute changes, Mean ± Std / ADAS-Cog absolute changes, Median: change in ADAS-Cog score (0-70 scale; higher = greater cognitive impairment)
Settings: for ADAS-Cog No change, rate of patients / ADAS-Cog Response (Decrease >=4), rate of patients / ADAS-Cog Response without deterioration (in ADCS-ADL and CIBIC-plus), rate of patients / ADAS-Cog Worsening (Increase >=4), rate of patients / ADAS-Cog absolute changes, Mean ± Std / ADAS-Cog absolute changes, Median: ITT population
Source text: A multicenter, randomized, double-blind, placebo-controlled, parallel-group phase 2 study evaluating the activity of masitinib given orally for 24 weeks has been performed in patients suffering from mild to moderate dementia of Alzheimer's type (protocol period completed, extension ongoing).
Patients: Patients enrolled in this study had dementia of Alzheimer's type (according to DSM IV criteria), probable Alzheimer's disease according to NINCDS-ADRDA criteria, MMSE≧12 and ≦26, and CDR of 1 or 2. […] Exclusion criteria included inadequate organ function (defined via blood test levels), dementia due to any other causes, uncontrolled depression, psychosis, delusions or delirium.
Treatment: In addition to a stable dose of acetylcholinesterase inhibitors and/or memantine, patients received masitinib or placebo, supplied as 100 and 200 mg tablets, per os for 24 weeks. Patients received masitinib or placebo initially at a daily total dose of 3 mg/kg or 6 mg/kg, administered twice daily with meals. Dose could be increased or decreased by 1.5 mg/kg/day depending on efficacy and toxicity assessments. Five patients were allocated to each masitinib dose for every three placebo patients. Treatment with any registered or putative cognitive enhancer or disease modifier (other than donepezil, galantamine, rivastigmine or memantine), or any investigational therapies was not allowed.
ADAS-Cog: Alzheimer's Disease Assessment Scale, a cognitive sub-scale which examines selected aspects of cognitive performance including elements of memory, orientation, attention, reasoning, language and praxis. The ADAS-Cog scoring range is from 0 to 70, with higher scores indicating greater cognitive impairment.
Statistical analyses: Efficacy was analyzed in the intent-to-treat (ITT) (all randomized patients, according to group of randomization) and per protocol (PP) (all patients without a major protocol deviation) populations. […] Efficacy criteria were analyzed using descriptive statistics, numbers and rates for categorical and discontinuous variables, parametric and non-parametric distribution elements for continuous variables.
Results are presented for the ITT population in the OC dataset (with LOCF for Centre #21 at Week 24).

[1] = W 24 LOCF center 21, Observed Cases

Question: What does the source list for `Cc1ccc(NC(=O)c2ccc(CN3CCN(C)CC3)cc2)cc1Nc1nc(-c2cccnc2)cs1` [masitinib, 4-(4-methylpiperazin-1-ylmethyl)-N-[4-methyl-3-(4-pyridin-3ylthiazol-2-ylamino)phenyl]benzamide]?
Answer: ADAS-Cog No change, rate of patients (W 4, Observed Cases): 17 (70.8%); ADAS-Cog Response (Decrease >=4), rate of patients (W 4, Observed Cases): 3 (12.5%); ADAS-Cog Response without deterioration (in ADCS-ADL and CIBIC-plus), rate of patients (W 4, Observed Cases): 2 (9.1%); ADAS-Cog Worsening (Increase >=4), rate of patients (W 4, Observed Cases): 4 (16.7%); ADAS-Cog absolute changes, Mean ± Std (W 4, Observed Cases): −0.0 ± 6.1; ADAS-Cog absolute changes, Median (W 4, Observed Cases): −1.5; ADAS-Cog No change, rate of patients (W 8, Observed Cases): 4 (44.4%); ADAS-Cog Response (Decrease >=4), rate of patients (W 8, Observed Cases): 4 (44.4%); ADAS-Cog Response without deterioration (in ADCS-ADL and CIBIC-plus), rate of patients (W 8, Observed Cases): 2 (25.0%); ADAS-Cog Worsening (Increase >=4), rate of patients (W 8, Observed Cases): 1 (11.1%); ADAS-Cog absolute changes, Mean ± Std (W 8, Observed Cases): −0.8 ± 8.1; ADAS-Cog absolute changes, Median (W 8, Observed Cases): −2.8; ADAS-Cog No change, rate of patients (W 12, Observed Cases): 9 (52.9%); ADAS-Cog Response (Decrease >=4), rate of patients (W 12, Observed Cases): 7 (41.2%); ADAS-Cog Response without deterioration (in ADCS-ADL and CIBIC-plus), rate of patients (W 12, Observed Cases): 25%; ADAS-Cog Worsening (Increase >=4), rate of patients (W 12, Observed Cases): 1 (5.9%); ADAS-Cog absolute changes, Mean ± Std (W 12, Observed Cases): −2.6 ± 3.6; ADAS-Cog absolute changes, Median (W 12, Observed Cases): −2.4; ADAS-Cog Response without deterioration (in ADCS-ADL and CIBIC-plus), rate of patients (W 12, Observed Cases, listed as AB1010): 4 (25.0%); ADAS-Cog No change, rate of patients (W 24, Observed Cases): 5 (55.6%); ADAS-Cog Response (Decrease >=4), rate of patients (W 24, Observed Cases): 3 (33.3%); ADAS-Cog Response without deterioration (in ADCS-ADL and CIBIC-plus), rate of patients (W 24, Observed Cases): 2 (25.0%); ADAS-Cog Worsening (Increase >=4), rate of patients (W 24, Observed Cases): 1 (11.1%); ADAS-Cog absolute changes, Mean ± Std (W 24, Observed Cases): −0.7 ± 7.8; ADAS-Cog absolute changes, Median (W 24, Observed Cases): −0.3; ADAS-Cog No change, rate of patients [1]: 9 (56.3%); ADAS-Cog Response (Decrease >=4), rate of patients [1]: 38%; ADAS-Cog Response without deterioration (in ADCS-ADL and CIBIC-plus), rate of patients [1]: 5 (33.3%); ADAS-Cog Worsening (Increase >=4), rate of patients [1]: 1 (6.3%); ADAS-Cog absolute changes, Mean ± Std [1]: −1.8 ± 6.1; ADAS-Cog absolute changes, Median [1]: −2.5; ADAS-Cog Response (Decrease >=4), rate of patients (W 24 LOCF center 21, observed cases, listed as AB1010): 6 (37.5%); ADAS-Cog score, mean decrease (i.e. improvement) (Week 12, ITT): 2.6±3.6 units; ADAS-Cog score, mean decrease (week 24, ITT): 0.7±7.8 units
